Data on 24 compounds can be found in patent publication US20230167103A1 (Bayer Aktiengesellschaft, priority 2020, published 2023).

Broadly, the IC50 is the concentration that inhibits the measured activity by half.

T1 sequence (Q13574 with tags, fused parts or gaps): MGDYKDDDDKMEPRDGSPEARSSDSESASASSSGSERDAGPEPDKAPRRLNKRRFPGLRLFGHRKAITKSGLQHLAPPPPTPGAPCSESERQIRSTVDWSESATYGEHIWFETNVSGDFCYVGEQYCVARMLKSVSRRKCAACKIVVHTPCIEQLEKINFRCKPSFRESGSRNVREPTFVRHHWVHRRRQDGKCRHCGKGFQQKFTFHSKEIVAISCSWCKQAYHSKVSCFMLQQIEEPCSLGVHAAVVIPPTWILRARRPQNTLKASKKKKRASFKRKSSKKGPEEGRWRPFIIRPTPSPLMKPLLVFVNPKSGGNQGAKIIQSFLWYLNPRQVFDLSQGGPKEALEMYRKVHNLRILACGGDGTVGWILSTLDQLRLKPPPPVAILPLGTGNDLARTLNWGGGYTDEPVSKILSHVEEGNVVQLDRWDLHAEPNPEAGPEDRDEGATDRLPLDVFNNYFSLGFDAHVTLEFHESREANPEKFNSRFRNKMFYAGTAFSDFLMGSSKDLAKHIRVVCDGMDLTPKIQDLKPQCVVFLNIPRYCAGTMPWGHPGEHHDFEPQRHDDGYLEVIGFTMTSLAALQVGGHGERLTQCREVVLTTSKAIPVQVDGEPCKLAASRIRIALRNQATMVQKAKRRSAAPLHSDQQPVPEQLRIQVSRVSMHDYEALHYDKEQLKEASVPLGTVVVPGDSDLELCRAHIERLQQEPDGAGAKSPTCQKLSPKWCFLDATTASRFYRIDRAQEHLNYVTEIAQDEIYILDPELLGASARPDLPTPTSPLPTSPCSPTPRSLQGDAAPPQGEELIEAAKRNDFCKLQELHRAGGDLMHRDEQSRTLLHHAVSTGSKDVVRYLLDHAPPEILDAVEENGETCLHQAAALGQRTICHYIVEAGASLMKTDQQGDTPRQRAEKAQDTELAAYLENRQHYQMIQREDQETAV

This assay has as its target T1, human DGKζ (Homo sapiens, UniProt Q13574).
T1 construct: made in house; host or cells: Sf9 insect cells, baculovirus
Briefly: Human DGKζ kinase activity inhibition assay (ADP-Glo). Format: biochemical. As to conditions: example compounds; recombinant full-length human DGKζ, 1,2-dioleoyl-sn-glycerol 7 μM, ATP 55 μM, 20 min at 22° C.; read-out: IC50 values of examples in in vitro human DGKζ kinase activity inhibition assays. As for the experimental part:
Human diacylglycerol kinase zeta (DGKζ) inhibitory activity of compounds of the present invention was quantified employing the human DGKζ kinase activity assay as described in the following paragraphs. In essence, the enzyme activity was measured by quantification of the adenosine-di-phosphate (ADP) generated as a co-product of the enzyme reaction via the “ADP-Glo™ Kinase Assay” kit from the company Promega. This detection system works as follows: In a first step the adenosine-tri-phosphate (ATP) not consumed in the kinase reaction is quantitatively converted to cyclic adenosine-mono-phosphate (cAMP) employing an adenylate cyclase (“ADP-Glo-reagent”), then the adenylate cyclase is stopped and the ADP generated in the kinase reaction is converted to ATP, which subsequently generates in a luciferase-based reaction a glow-luminescence signal (“Kinase Detection Reagent”).
C-terminally FLAG-tagged, recombinant full-length human DGKζ (inhouse expressed in baculovirus infected insect cells, purified using anti-Flag pulldown and size exclusion chromatography) was used as enzyme. As an alternative, commercially available enzyme by Carnabio can be used. As substrate for the kinase, 1,2-dioleoyl-sn-glycerol, reconstituted in octyl-β-D-glucopyranoside micelles, was used. […] Subsequently, 22.55 volumes of a 510 mM solution of octyl-β-D-glucopyranoside (Sigma-Aldrich, Cat. #O8001-10G) in 50 mM MOPS buffer (pH 7.4) were added, and the mixture was sonicated in an ultrasonic bath for 20 s. Then 35 volumes of 50 mM MOPS buffer (pH 7.4) were added to yield a solution of 0.28 mM 1,2 dioleoyl-sn-glycerol and 200 mM octyl-β-D-glucopyranoside, which was aliquoted, flash-frozen in liquid nitrogen, and stored at −20° C. until use.
For the assay 50 nl of a 100-fold concentrated solution of the test compound in dimethyl sulfoxide (DMSO, Sigma) was pipetted into either a white 1536-well or a white low-volume 384-well microtiter plate (both Greiner Bio-One, Frickenhausen, Germany). […] The concentration of DGKζ was adjusted depending of the activity of the enzyme lot and was chosen appropriate to have the assay in the linear range, a typical concentration is about 0.1 nM. The reaction was stopped by the addition of 2.5 μL of “ADP-Glo-reagent” (1 to 1.5 diluted with water) and the resulting mixture was incubated at 22° C. for 1 h to convert the ATP not consumed in the kinase reaction completely to cAMP. Subsequently 2.5 μl of the “kinase detection reagent” (1.2 fold more concentrated than recommended by the producer) were added, the resulting mixture was incubated at 22° C. for 1 h and then the luminescence measured with a suitable measurement instrument (e.g. Viewlux™ from Perkin-Elmer). The amount of emitted light was taken as a measure for the amount of ADP generated and thereby for the activity of the DGKζ.
The data were normalised (enzyme reaction without inhibitor=0% inhibition, all other assay components but no enzyme=100% inhibition).
(In general: In ADP-Glo the light output rises with the ADP produced.)
As for `CC(C(N)=O)N(c1ccc(F)cc1)c1nc(N)c(C(=O)c2cc(CN3CCC(F)(F)C(C)C3)no2)s1` (mixture of isomers) [Example 76, 2-(N-[4-amino-5-[3-[(4,4-difluoro-3-methyl-1-piperidyl)methyl]isoxazole-5-carbonyl]thiazol-2-yl]-4-fluoro-anilino)propanamide], the half-maximal inhibitory concentration (IC50) worked out at 10 nM.

Consider `CC(C(N)=O)N(c1ccc(F)cc1)c1nc(N)c(C(=O)c2cc(CN3CCC(F)C3)no2)s1` (mixture of isomers) [Example 77, 2-(N-[4-amino-5-[3-[(3-fluoropyrrolidin-1-yl)methyl]isoxazole-5-carbonyl]thiazol-2-yl]-4-fluoro-anilino)propanamide], for which the IC50 was 242 nM.

On to `CC(C(N)=O)N(c1ccc(F)cc1)c1nc(N)c(C(=O)c2nc(-c3ccc(Cl)cc3)no2)s1` (racemic) [Example 1, rac-2-(N-[4-amino-5-[3-(4-chlorophenyl)-1,2,4-oxadiazole-5-carbonyl]thiazol-2-yl]-4-fluoro-anilino)propanamide], for which the IC50 amounted to 9 nM.

Take `CC(C(N)=O)N(c1ccc(F)cc1)c1nc(N)c(C(=O)c2cc(OCc3ccccc3)no2)s1` (racemic) [Example 2, rac-2-(N-[4-amino-5-(3-benzyloxyisoxazole-5-carbonyl)thiazol-2-yl]-4-fluoro-anilino)propanamide]: the IC50 turned out to be 27 nM.

As for `CC(C(N)=O)N(c1ccc(F)cc1)c1nc(N)c(C(=O)c2cc(-c3ccccc3)no2)s1` (racemic) [Example 3, rac-2-(N-[4-amino-5-(3-phenylisoxazole-5-carbonyl)thiazol-2-yl]-4-fluoro-anilino)propanamide], the IC50 turned out to be 104 nM.

In the case of `CC(C(N)=O)N(c1ccc(F)cc1)c1nc(N)c(C(=O)c2cc(-c3ccc(Cl)cc3Cl)no2)s1` (racemic) [Example 4, rac-2-(N-[4-amino-5-[3-(2,4-dichlorophenyl)isoxazole-5-carbonyl]thiazol-2-yl]-4-fluoro-anilino)propanamide], the IC50 is 37 nM.

In the case of `CC(C(N)=O)N(c1ccc(F)cc1)c1nc(N)c(C(=O)c2cc(-c3ccc(Cl)cc3)no2)s1` (racemic) [Example 5, rac-2-(N-[4-amino-5-[3-(4-chlorophenyl)isoxazole-5-carbonyl]thiazol-2-yl]-4-fluoro-anilino)propanamide], the IC50 stood at 67 nM.

Turning to `CC(C(N)=O)N(c1ccc(F)cc1)c1nc(N)c(C(=O)c2cc(Br)no2)s1` (racemic) [Example 6, rac-2-(N-[4-amino-5-(3-bromoisoxazole-5-carbonyl)thiazol-2-yl]-4-fluoro-anilino)propanamide], the IC50 came to 123 nM.

Consider `CC(C(N)=O)N(c1ccc(F)cc1)c1nc(N)c(C(=O)c2cc(-c3cccnc3)no2)s1` (racemic) [Example 7, rac-2-(N-[4-amino-5-[3-(3-pyridyl)isoxazole-5-carbonyl]thiazol-2-yl]-4-fluoro-anilino)propanamide], for which the IC50 stood at 407 nM.

Turning to `CC(C(N)=O)N(c1ccc(F)cc1)c1nc(N)c(C(=O)c2cc(-c3ccncc3)no2)s1` (racemic) [Example 8, rac-2-(N-[4-amino-5-[3-(4-pyridyl)isoxazole-5-carbonyl]thiazol-2-yl]-4-fluoro-anilino)propanamide], the concentration for half-maximal inhibition (IC50) is 728 nM.

As for `CCOC(=O)c1cc(C(=O)c2sc(N(c3ccc(F)cc3)C(C)C(N)=O)nc2N)on1` (racemic) [Example 9, rac-Ethyl 5-[4-amino-2-(N-(2-amino-1-methyl-2-oxo-ethyl)-4-fluoro-anilino)thiazole-5-carbonyl]isoxazole-3-carboxylate], the IC50 is 189 nM.

Regarding `CC(C(N)=O)N(c1ccc(F)cc1)c1nc(N)c(C(=O)c2cc(C(=O)Nc3ccccc3)no2)s1` (racemic) [Example 10, rac-5-[4-amino-2-(N-(2-amino-1-methyl-2-oxo-ethyl)-4-fluoro-anilino)thiazole-5-carbonyl]-N-phenyl-isoxazole-3-carboxamide], the IC50 is 23 nM.

Regarding `CC(C(N)=O)N(c1ccc(F)cc1)c1nc(N)c(C(=O)c2cc(C(=O)N[C@@H]3C[C@@H]3F)no2)s1` (mixture of isomers) [Example 11, 5-[4-amino-2-(N-(2-amino-1-methyl-2-oxo-ethyl)-4-fluoro-anilino)thiazole-5-carbonyl]-N-[(cis)-2-fluorocyclopropyl]isoxazole-3-carboxamide], the IC50 was 2360 nM.

For the compound `CC(C(N)=O)N(c1ccc(F)cc1)c1nc(N)c(C(=O)c2cc(C(=O)Nc3cnn(C)c3)no2)s1` (racemic) [Example 12, rac-5-[4-amino-2-(N-(2-amino-1-methyl-2-oxo-ethyl)-4-fluoro-anilino)thiazole-5-carbonyl]-N-(1-methylpyrazol-4-yl)isoxazole-3-carboxamide], the 50% inhibitory concentration (IC50) is 938 nM.

Take `CC(C(N)=O)N(c1ccc(F)cc1)c1nc(N)c(C(=O)c2cc(C(=O)N3CCOCC3)no2)s1` (racemic) [Example 13, rac-2-(N-[4-amino-5-[3-(morpholine-4-carbonyl)isoxazole-5-carbonyl]thiazol-2-yl]-4-fluoro-anilino)propanamide]: the IC50 was 977 nM.

On to `CC(C(N)=O)N(c1ccc(F)cc1)c1nc(N)c(C(=O)c2cc(C(=O)NC3CC3)no2)s1` (racemic) [Example 15, rac-5-[4-amino-2-(N-(2-amino-1-methyl-2-oxo-ethyl)-4-fluoro-anilino)thiazole-5-carbonyl]-N-cyclopropyl-isoxazole-3-carboxamide], for which the IC50 was 565 nM.

As for `CC(C(N)=O)N(c1ccc(F)cc1)c1nc(N)c(C(=O)c2cc(C(=O)Nc3ccncc3)no2)s1` (racemic) [Example 16, rac-5-[4-amino-2-(N-(2-amino-1-methyl-2-oxo-ethyl)-4-fluoro-anilino)thiazole-5-carbonyl]-N-(4-pyridyl)isoxazole-3-carboxamide], the IC50 was found to be 420 nM.

On to `CC(C(N)=O)N(c1ccc(F)cc1)c1nc(N)c(C(=O)c2cc(C(=O)NCC(F)F)no2)s1` (racemic) [Example 17, rac-5-[4-amino-2-(N-(2-amino-1-methyl-2-oxo-ethyl)-4-fluoro-anilino)thiazole-5-carbonyl]-N-(2,2-difluoroethyl)isoxazole-3-carboxamide], for which the IC50 amounted to 699 nM.

Turning to `CC(C(N)=O)N(c1ccc(F)cc1)c1nc(N)c(C(=O)c2cc(C(=O)N3CCC3)no2)s1` (racemic) [Example 18, rac-2-(N-[4-amino-5-[3-(azetidine-1-carbonyl)isoxazole-5-carbonyl]thiazol-2-yl]-4-fluoro-anilino)propanamide], the IC50 stood at 492 nM.

Regarding `CC(C(N)=O)N(c1ccc(F)cc1)c1nc(N)c(C(=O)c2cc(C(=O)N3CCCC3)no2)s1` (racemic) [Example 19, rac-2-(N-[4-amino-5-[3-(pyrrolidine-1-carbonyl)isoxazole-5-carbonyl]thiazol-2-yl]-4-fluoro-anilino)propanamide], the IC50 was determined as 315 nM.

With `CC(C(N)=O)N(c1ccc(F)cc1)c1nc(N)c(C(=O)c2cc(C(=O)Nc3cccnc3)no2)s1` (racemic) [Example 20, rac-5-[4-amino-2-(N-(2-amino-1-methyl-2-oxo-ethyl)-4-fluoro-anilino)thiazole-5-carbonyl]-N-(3-pyridyl)isoxazole-3-carboxamide], the IC50 was determined as 300 nM.

With `CC(C(N)=O)N(c1ccc(F)cc1)c1nc(N)c(C(=O)c2cc(C(=O)NC3CCC3)no2)s1` (racemic) [Example 21, rac-5-[4-amino-2-(N-(2-amino-1-methyl-2-oxo-ethyl)-4-fluoro-anilino)thiazole-5-carbonyl]-N-cyclobutyl-isoxazole-3-carboxamide], the IC50 came out at 293 nM.

With `CC(C(N)=O)N(c1ccc(F)cc1)c1nc(N)c(C(=O)c2cc(C(=O)NCC3CC3)no2)s1` (racemic) [Example 22, rac-5-[4-amino-2-(N-(2-amino-1-methyl-2-oxo-ethyl)-4-fluoro-anilino)thiazole-5-carbonyl]-N-(cyclopropylmethyl)isoxazole-3-carboxamide], the IC50 came out at 182 nM.

For `CC(C(N)=O)N(c1ccc(F)cc1)c1nc(N)c(C(=O)c2cc(C(=O)NCC(F)(F)F)no2)s1` (racemic) [Example 23, rac-5-[4-amino-2-(N-(2-amino-1-methyl-2-oxo-ethyl)-4-fluoro-anilino)thiazole-5-carbonyl]-N-(2,2,2-trifluoroethyl)isoxazole-3-carboxamide], the IC50 was found to be 212 nM.
